Assay results from patent US11252953B2, “Repellent and attractant composition for dichromatic animals” (The United States of America, Represented by the Secretary …, priority 2016, dated 2022).

How the values were obtained:
California voles = assay: California vole concentration-response feeding experiment; assay type: in vivo, Microtus californicus Peale
[1] = test system: Richardson's ground squirrels; assay: Richardson's ground squirrel concentration-response feeding experiment; assay type: in vivo, Urocitellus richardsonii Sabine
deer mice = assay: Deer mouse concentration-response feeding experiment; assay type: in vivo, Peromyscus maniculatus Wagner
cottontail rabbits = assay: Cottontail rabbit concentration-response feeding experiment; assay type: in vivo, Sylvilagus audubonii Baird
wild boar = details: corn treated with 0.64% anthraquinone; cited from earlier work
[2] = test system: black-tailed prairie dogs; details: corn seeds treated with 0.5-4.0% anthraquinone; cited from earlier work
black rats = details: 0.1% and 0.25% anthraquinone; cited from earlier work
possums [3] = details: 0.25% anthraquinone; cited from earlier work
brown rats = details: 0.04% and 0.08% anthraquinone; control baits 0.01-0.03% cinnamon, green carrots; cited from earlier work
possums [4] = details: 0.08% anthraquinone; cited from earlier work
female common voles = details: wheat treated with 5% anthraquinone and chloroform; cited from earlier work
male common voles = details: wheat treated with 15% anthraquinone and chloroform; cited from earlier work
male house mice = details: wheat treated with 15% anthraquinone and chloroform; cited from earlier work
Canada geese = details: range printed jointly for Canada geese and red-winged blackbirds; cited from earlier work
red-winged blackbirds = details: range printed jointly for Canada geese and red-winged blackbirds; cited from earlier work
American crows = details: in vivo; cited from earlier work
common grackles = details: in vivo; cited from earlier work
ring-necked pheasants = details: in vivo; cited from earlier work

O=C1c2ccccc2C(=O)c2ccccc21 [anthraquinone, 9,10-anthraquinone]
anthraquinone dosage for observed threshold repellency (California voles; at 18,300 ppm anthraquinone (84% repellency), mean vole BM=38.1 g): 365.0±103.1 mg anthraquinone/kg BM
threshold concentration (California voles; can effectively repel voles from treated food): 1.3 % (wt/wt)
predicted threshold concentration (California voles; concentration needed to achieve 80% feeding repellency, non-linear regression, treated oats): about 13,400 ppm
repellency (California voles; whole oats treated with 0.25-2.0% anthraquinone (target, wt/wt; actual 2,050-18,300 ppm), test consumption (day 4) relative to pre-test consumption): 24-84%
repellency (California voles; whole oats treated with 18,300 ppm anthraquinone): 84%
feeding repellency ([1]; whole oats treated with 0.5-2.0% anthraquinone (target; actual 5,380-18,500 ppm)): 40-56%
repellency ([1]; whole oats treated with 18,500 ppm anthraquinone): 56%
repellency (deer mice; whole oats treated with 0.25-2.0% anthraquinone (target; actual 2,820-19,900 ppm)): 19-52%
repellency (deer mice; whole oats treated with 10,800 ppm anthraquinone): 52%
anthraquinone dosage for observed threshold repellency (cottontail rabbits): 149.9±28.1 mg anthraquinone/kg BM
repellency (cottontail rabbits; oats treated with 4,790 ppm anthraquinone): 68%
repellency (cottontail rabbits; oats treated with 10,300 ppm anthraquinone): 75%
feeding repellency (cottontail rabbits; whole oats treated with 0.5-2.0% anthraquinone (target; actual 4,790-19,600 ppm)): 68-85%
feeding repellency (cottontail rabbits; whole oats treated with 19,600 ppm anthraquinone (target 2.0%)): 85%
less treated corn consumed than untreated corn (wild boar): 86.5%
repellency [2]: 24-37%
response to anthraquinone-treated baits (black rats): aversion
response to anthraquinone-treated baits (possums [3]): aversion
consumption of anthraquinone-treated baits relative to control baits (brown rats): less
consumption of anthraquinone-treated baits relative to control baits (possums [4]): no different
less treated wheat consumed than wheat treated only with chloroform (female common voles): 47%
consumption of treated wheat relative to wheat treated only with chloroform (male common voles): no difference
consumption of treated wheat relative to wheat treated only with chloroform (male house mice): greater consumption
predicted threshold concentration (Canada geese): 1,450-1,475 ppm
predicted threshold concentration (red-winged blackbirds): 1,450-1,475 ppm
predicted threshold concentration (American crows): 5,200 ppm
predicted threshold concentration (common grackles): 9,200 ppm
predicted threshold concentration (ring-necked pheasants): 10,450 ppm
